Molecules are shown by their SMILES. Changes are numbered by the printed parent chain.

The values below come from article PMC5355235, “FLT3 activating mutations display differential sensitivity to multiple tyrosine kinase inhibitors” (Oncotarget, 2017).

The target of one assay is T1, FLT3 I836S (Homo sapiens, UniProt P36888, I836S).
T1 construct: expressed in transfected cells; host or cells: BaF3
T1 sequence (P36888 27-993 I836S): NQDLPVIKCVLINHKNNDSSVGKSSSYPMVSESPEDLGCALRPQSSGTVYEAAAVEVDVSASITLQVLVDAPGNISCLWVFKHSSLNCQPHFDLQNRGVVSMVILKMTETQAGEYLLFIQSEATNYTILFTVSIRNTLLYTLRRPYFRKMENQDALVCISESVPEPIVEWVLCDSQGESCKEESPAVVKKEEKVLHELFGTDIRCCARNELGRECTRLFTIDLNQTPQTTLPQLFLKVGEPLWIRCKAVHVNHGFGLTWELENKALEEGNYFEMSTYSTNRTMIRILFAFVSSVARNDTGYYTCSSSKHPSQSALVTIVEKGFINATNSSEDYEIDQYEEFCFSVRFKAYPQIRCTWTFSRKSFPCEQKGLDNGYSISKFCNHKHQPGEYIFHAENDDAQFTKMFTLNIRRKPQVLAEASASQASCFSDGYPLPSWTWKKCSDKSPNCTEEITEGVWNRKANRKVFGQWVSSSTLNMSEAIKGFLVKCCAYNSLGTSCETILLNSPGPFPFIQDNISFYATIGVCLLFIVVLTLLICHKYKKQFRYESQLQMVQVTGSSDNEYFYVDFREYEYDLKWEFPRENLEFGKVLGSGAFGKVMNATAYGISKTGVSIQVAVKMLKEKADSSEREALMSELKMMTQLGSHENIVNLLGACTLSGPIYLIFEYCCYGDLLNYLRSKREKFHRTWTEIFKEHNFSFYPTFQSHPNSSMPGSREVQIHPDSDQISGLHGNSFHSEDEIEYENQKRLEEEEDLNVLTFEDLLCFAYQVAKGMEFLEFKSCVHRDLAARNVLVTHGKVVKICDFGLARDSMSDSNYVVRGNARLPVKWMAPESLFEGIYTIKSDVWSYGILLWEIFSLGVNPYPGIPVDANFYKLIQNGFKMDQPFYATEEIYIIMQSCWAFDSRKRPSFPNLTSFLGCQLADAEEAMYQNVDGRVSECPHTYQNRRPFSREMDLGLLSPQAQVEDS
As to the kind of experiment: FLT3 autophosphorylation, immunoprecipitation/Western blot, I836S. The assay is classed as cell-based. The settings on record: I836S mutant, concentrations of 200 nM, 1 h. As to the method:
(§1) Activated FLT3 expression was measured by performing immunoprecipitation, SDS-PAGE and Western blotting as previously described. Specifically, 10^7 cells were washed in medium and treated with inhibitor for 1 h followed by stimulation with 25 ng/ml of FLT3 ligand for 15 minutes where indicated. Cells were washed twice with ice-cold PBS and lysed in 300 µl of NP-40 lysis buffer (150 mM NaCl, 20 mM TrisHCl (pH7.4), 10% glycerol, 1% NP-40, 10 mM EDTA, 100 mM NaF) with 2 mM Na3VO4 and protease inhibitors (Complete Tablets, Roche, Mannheim, Germany) at 4°C for 30 m. Cell lysate was harvested by centrifugation at 13,000 × g for 30 m at 4°C. FLT3 S-18 antibody was incubated with 500 µg lysate overnight at 4°C followed by immunoprecipitation with protein A-agarose beads for 2 h. Beads were washed once in Tris buffered saline with 1% Tween-20 (TBST) and twice in TBS. Samples were boiled in sodium dodecyl sulfate (SDS) sample buffer prior to separating in a 8% SDS-polyacrylamide gel (SDS-PAGE). Proteins were transferred to a polyvinyl diflouride (PVDF) membrane (Millipore, Bedford, MA, USA) and detected by 4G10 phosphotyrosine antibody and anti-FLT3 S-18 antibody. FLT3 was visualized using the Odyssey Infra Red Imaging System from Li-Cor (Lincoln, NE, USA) using AlexaFluor 680 goat anti-mouse and AlexaFluor 800 goat anti-rabbit antibodies. […]
(In general: In western blotting, separated proteins are transferred to a membrane and probed.)

The target in the next assay is T2, FLT3 I836T (Homo sapiens, UniProt P36888, I836T).
T2 construct: expressed in transfected cells; host or cells: BaF3
T2 sequence (P36888 27-993 I836T): T1 sequence (P36888 27-993 I836S) with S810T
As to the kind of experiment: FLT3 autophosphorylation, immunoprecipitation/Western blot, I836T. Format: cell-based. The settings on record: I836T mutant, concentrations of 200 nM, 1 h. As to the method:
as §1

For `CC1(COc2ccc3c(c2)ncn3-c2ccc3cccc(N4CCC(N)CC4)c3n2)COC1` [Crenolanib], the “Inhibition of FLT3 phosphorylation” value on FLT3 I836S and at FLT3 I836T was “significant autophosphorylation still observable” throughout.

In the case of `Cc1ccc(C(=O)Nc2ccc(CN3CCN(C)CC3)c(C(F)(F)F)c2)cc1C#Cc1cnc2cccnn12` [Ponatinib], the “Inhibition of FLT3 phosphorylation” value on FLT3 I836S and on FLT3 I836T was “significant autophosphorylation still observable” throughout.
